Columns and labels:
[1] = system: 786-O EV^GFP (VHL-deficient) cells; assay: Western blot for Caspase 9 and Bcl-xL; assay type: cell-based, human
Description: (§1) Figure 2 Homoharringtonine (HHT) preferentially induces cell death in VHL-deficient 786-O cells A. 786-O cells with VHL mutation (green) or with VHL-reconstituted (red) were treated with different concentrations of HHT (0, 25, 50, or 100 nM) for 0, 6, 12, 24, 36, or 48 hours, and cell death was measured by trypan blue exclusion assay (n = 3 for each concentration and time point; *p < 0.05, **p < 0.001, ***p < 0.0001 between 786-O EV cells and 786-O with VHL reconstituted at the same concentration and time point). B. […] Blots were probed for Bcl-xL and Caspase 9, and α-Tubulin as loading control. Arrow indicates the cleaved Caspase 9 product.

[2] = system: 786-O VHL^mCh (VHL-reconstituted) cells; assay: Western blot for Caspase 9 and Bcl-xL; assay type: cell-based, human; details: 24 hours
Description: as §1

XP26 tumorgraft line = assay: ccRCC tumorgraft model, line XP26; assay type: in vivo, NOD/SCID mice; details: 0.7 mg/kg by gavage twice daily
Description: We selected 6 independently-derived ccRCC tumorgraft lines that were confirmed to have VHL mutation. The mice (3-5 mice per tumorgraft line) were treated with either HHT (0.7 mg/kg), vehicle (as a negative control), or rapamycin (0.5 mg/kg; as a positive control). In total, 65 tumorgraft bearing mice were evaluated for these experiments in time courses lasting ~28 days, with tumor growth measured every 3 or 4 days.
Figure 3 HHT inhibits tumor growth in a ccRCC tumorgraft model A-F, Tumorgraft lines were treated with vehicle control, HHT (0.7 mg/kg), rapamycin (0.5 mg/kg), (or the combination, where indicated) and tumor growth was measured on the indicated days. Day 0 represents the first day of treatment.
Tumorgrafts were generated and propagated as described previously, with tumor samples implanted subcutaneously into the flank of the mouse for drug trials. Briefly, 4- to 8-week-old NOD/SCID mice were anesthetized with isoflurane and implanted subcutaneously with 64 mm^3 tumor fragments (cohorts 2-20). Once tumors reached an average of at least ~250 mm^3, drug treatment was begun. […] Tumor size (volume) was measured twice weekly and was obtained by multiplying tumor length, width, and depth using calipers. To assess toxicity, mouse weight was monitored once weekly.

[3] = system: VHL-deficient 786-O cells; assay: High-throughput simultaneous screen and counterscreen, 1:1 mix of EV^GFP and VHL^mCh 786-O cells, fluorescence imaging; assay type: cell-based, human; details: library at 5 μM, 48 hours, in the presence of 2 nM rapamycin
From the text: To identify small molecule compounds synthetic lethal with VHL, we carried out an unbiased cell-based screen of a chemical library of ~12,800 compounds using 786-O cells, an extensively studied cell line derived from a VHL-deficient primary human ccRCC [26]. 786-O cells were stably transfected with either an empty vector (EV) control or reconstituted with an HA-tagged VHL cDNA. […] To distinguish between the two otherwise isogenic cell lines, we transduced the VHL-deficient 786-O cells with a histone H2B-GFP reporter and the VHL-reconstituted cells with an H2B-mCherry reporter. The histone proteins drive the fluorochrome to nuclei facilitating cell identification and segmentation algorithms (Figure 1A and 1B). […]
Figure 1 Screening strategy to identify compounds that are synthetic lethal with VHL A. Schematic diagram of a ~12,800 chemical library synthetic lethal screen. […] Fluorescence imaging (using the BD Pathway 855 imager) was used to identify compounds preferentially depleting VHL-deficient/GFP-positive cells after cells were segmented. B. Left panel: Representative image of fluorescence signal from Hoescht-labeled 786-O cells. Right panel: overlay of GFP fluorescence signal (green; from 786-O EV^GFP cells) and mCherry fluorescence nuclear signal (red; VHL^mCh cells). […] Toxicity was determined as ≤100 VHL^mCh cells per field. […]

COC(=O)C[C@](O)(CCCC(C)(C)O)C(=O)O[C@@H]1C(OC)=C[C@]23CCCN2CCc2cc4c(cc2[C@H]13)OCO4 [HHT, homoharringtonine]
caspase 9 cleavage ([1]; 50 nM and 100 nM, within 12 hours): observed | Bcl-xL expression ([1]; 24 hours): not upregulated | Bcl-xL expression [2]: upregulated | tumor weight smaller than vehicle-treated (XP26 tumorgraft line): 56% | tumor growth inhibition (tumor volume) vs vehicle (XP26 tumorgraft line; ~28 days): 63.7% | synthetic lethality with VHL in the screen [3]: synthetic lethal compound effective against VHL-deficient ccRCC cells
